{"source": "paper PMC8001506", "about": "(Marine Drugs, 2021)", "test_in_all_cases": "cell-based", "key": {"rat α3β2 nAChR": {"biological_target": "rat α3β2 nAChR (Rattus norvegicus, UniProt P04757+P12390)"}, "rat α6/α3β2β3 nAChR": {"biological_target": "rat α6/α3β2β3 nAChR (Rattus norvegicus, UniProt P04757+P12390+P12391+P43143)", "sequence (P04757 whole entry, looked up)": "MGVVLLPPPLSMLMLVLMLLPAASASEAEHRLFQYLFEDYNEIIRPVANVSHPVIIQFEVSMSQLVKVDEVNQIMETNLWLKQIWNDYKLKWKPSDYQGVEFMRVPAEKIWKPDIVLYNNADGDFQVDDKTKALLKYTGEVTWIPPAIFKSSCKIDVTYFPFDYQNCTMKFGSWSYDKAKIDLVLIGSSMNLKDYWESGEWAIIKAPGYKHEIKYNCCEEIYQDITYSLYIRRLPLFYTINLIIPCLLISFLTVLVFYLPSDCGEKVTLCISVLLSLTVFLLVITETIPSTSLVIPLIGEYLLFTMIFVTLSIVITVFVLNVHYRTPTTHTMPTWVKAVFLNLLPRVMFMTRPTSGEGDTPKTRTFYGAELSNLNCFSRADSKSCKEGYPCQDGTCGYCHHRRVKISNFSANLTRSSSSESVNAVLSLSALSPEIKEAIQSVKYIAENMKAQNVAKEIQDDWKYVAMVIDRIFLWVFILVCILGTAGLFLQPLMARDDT", "sequence (P12390 whole entry, looked up)": "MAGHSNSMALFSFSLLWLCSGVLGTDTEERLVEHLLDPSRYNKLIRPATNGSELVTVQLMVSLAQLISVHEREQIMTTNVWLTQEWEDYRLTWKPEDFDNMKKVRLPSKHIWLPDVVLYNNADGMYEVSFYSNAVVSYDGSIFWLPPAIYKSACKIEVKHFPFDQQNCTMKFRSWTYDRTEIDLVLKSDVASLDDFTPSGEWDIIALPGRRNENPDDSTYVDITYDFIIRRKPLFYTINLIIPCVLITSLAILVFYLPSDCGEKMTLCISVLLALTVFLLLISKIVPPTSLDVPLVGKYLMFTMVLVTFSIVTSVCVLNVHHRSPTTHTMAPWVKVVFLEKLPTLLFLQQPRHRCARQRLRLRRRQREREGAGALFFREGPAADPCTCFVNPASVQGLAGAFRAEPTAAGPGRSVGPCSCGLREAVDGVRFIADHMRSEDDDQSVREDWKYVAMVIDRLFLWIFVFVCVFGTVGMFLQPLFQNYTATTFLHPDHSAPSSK", "sequence (P12391 whole entry, looked up)": "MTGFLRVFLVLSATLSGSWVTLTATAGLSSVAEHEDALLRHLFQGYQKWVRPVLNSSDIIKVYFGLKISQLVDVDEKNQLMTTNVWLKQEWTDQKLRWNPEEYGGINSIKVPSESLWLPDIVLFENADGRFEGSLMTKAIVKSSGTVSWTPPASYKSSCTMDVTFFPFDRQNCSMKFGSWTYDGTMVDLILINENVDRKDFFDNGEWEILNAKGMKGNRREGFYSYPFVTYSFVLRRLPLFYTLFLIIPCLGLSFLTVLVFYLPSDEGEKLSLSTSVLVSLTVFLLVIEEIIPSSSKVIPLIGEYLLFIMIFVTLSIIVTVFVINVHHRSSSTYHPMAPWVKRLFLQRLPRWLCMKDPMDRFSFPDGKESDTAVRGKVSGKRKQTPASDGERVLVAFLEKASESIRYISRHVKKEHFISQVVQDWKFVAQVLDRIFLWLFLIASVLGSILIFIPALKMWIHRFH", "sequence (P43143 whole entry, looked up)": "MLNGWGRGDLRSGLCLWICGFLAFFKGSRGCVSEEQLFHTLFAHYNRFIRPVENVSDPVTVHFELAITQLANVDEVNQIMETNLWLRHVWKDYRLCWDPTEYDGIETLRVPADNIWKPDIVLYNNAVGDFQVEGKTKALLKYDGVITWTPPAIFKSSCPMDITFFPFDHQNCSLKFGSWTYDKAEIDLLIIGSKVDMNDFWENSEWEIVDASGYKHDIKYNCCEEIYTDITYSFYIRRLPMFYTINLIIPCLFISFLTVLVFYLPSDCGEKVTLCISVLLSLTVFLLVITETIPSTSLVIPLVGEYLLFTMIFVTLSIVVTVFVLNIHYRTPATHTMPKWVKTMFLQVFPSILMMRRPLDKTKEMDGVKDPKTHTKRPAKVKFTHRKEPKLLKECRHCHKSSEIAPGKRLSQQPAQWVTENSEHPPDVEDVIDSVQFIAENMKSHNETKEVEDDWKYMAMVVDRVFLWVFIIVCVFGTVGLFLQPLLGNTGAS"}, "rat α7 nAChR": {"biological_target": "rat α7 nAChR (Rattus norvegicus, UniProt Q05941)", "sequence (Q05941 23-502 limits assumed)": "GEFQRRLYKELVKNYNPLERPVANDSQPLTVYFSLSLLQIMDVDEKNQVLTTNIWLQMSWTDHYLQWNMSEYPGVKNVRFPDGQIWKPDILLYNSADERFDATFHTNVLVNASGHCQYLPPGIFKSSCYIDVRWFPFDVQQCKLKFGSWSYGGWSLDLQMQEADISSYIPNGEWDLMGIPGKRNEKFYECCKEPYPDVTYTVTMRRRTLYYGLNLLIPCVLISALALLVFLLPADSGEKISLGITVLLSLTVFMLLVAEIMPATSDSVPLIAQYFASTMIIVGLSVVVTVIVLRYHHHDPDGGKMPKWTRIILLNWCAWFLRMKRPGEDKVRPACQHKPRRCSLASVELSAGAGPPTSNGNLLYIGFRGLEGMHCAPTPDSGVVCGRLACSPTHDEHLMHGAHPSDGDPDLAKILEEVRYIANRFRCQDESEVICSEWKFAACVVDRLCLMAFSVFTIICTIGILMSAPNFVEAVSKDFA", "assay_type": "cell-based"}, "rat α4β2 nAChR": {"biological_target": "rat α4β2 nAChR (Rattus norvegicus, UniProt P09483+P12390)", "sequence (P09483 31-630 limits assumed)": "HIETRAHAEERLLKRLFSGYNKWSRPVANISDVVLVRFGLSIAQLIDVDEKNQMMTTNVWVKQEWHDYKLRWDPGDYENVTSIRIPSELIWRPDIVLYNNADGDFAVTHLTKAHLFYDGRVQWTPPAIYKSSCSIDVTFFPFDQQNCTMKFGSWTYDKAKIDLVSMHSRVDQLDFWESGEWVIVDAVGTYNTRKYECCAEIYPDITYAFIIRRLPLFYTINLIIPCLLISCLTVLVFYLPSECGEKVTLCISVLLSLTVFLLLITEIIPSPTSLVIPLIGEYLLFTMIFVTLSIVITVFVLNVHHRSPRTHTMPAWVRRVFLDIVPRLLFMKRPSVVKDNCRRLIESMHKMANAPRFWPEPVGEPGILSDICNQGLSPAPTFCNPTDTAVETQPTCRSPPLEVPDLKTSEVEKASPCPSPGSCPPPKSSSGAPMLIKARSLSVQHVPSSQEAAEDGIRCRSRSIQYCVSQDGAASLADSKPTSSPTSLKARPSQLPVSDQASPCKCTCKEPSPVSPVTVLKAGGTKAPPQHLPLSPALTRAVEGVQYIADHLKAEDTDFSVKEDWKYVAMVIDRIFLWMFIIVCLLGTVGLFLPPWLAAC", "sequence (P12390 25-500 limits assumed)": "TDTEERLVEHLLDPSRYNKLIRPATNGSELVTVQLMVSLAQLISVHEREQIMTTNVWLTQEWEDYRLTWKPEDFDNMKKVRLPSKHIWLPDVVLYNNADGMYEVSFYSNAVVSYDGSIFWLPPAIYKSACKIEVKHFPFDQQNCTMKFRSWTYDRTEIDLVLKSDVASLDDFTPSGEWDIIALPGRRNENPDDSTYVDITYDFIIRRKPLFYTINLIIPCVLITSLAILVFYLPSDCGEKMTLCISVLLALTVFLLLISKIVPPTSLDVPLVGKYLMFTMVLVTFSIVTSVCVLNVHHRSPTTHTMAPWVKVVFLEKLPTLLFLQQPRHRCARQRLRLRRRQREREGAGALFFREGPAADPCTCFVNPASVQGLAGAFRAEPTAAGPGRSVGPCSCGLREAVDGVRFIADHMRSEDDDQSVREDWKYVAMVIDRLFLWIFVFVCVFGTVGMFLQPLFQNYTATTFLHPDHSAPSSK", "assay_type": "cell-based"}, "rat α4β4 nAChR": {"biological_target": "rat α4β4 nAChR (Rattus norvegicus, UniProt P09483+P12392)", "sequence (P09483 31-630 limits assumed)": "as the sequence (P09483 31-630 limits assumed) above", "sequence (P12392 21-495 limits assumed)": "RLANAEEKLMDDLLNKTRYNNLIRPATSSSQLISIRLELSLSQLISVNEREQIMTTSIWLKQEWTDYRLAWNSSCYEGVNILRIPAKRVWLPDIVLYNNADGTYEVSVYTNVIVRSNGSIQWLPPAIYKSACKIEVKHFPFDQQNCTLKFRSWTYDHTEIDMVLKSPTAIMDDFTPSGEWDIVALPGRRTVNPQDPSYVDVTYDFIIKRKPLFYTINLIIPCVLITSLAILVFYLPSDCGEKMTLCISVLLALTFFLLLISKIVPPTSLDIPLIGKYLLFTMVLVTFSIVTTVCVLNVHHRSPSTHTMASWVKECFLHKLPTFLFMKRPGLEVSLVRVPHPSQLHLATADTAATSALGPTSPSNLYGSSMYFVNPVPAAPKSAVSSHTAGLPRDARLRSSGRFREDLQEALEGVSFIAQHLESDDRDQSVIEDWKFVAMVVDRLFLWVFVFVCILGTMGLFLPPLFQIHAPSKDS", "assay_type": "cell-based"}, "rat α3β4 nAChR": {"biological_target": "rat α3β4 nAChR (Rattus norvegicus, UniProt P04757+P12392)", "assay_type": "cell-based"}, "rat α2β2 nAChR": {"biological_target": "rat α2β2 nAChR (Rattus norvegicus, UniProt P12389+P12390)", "sequence (P12389 28-511 limits assumed)": "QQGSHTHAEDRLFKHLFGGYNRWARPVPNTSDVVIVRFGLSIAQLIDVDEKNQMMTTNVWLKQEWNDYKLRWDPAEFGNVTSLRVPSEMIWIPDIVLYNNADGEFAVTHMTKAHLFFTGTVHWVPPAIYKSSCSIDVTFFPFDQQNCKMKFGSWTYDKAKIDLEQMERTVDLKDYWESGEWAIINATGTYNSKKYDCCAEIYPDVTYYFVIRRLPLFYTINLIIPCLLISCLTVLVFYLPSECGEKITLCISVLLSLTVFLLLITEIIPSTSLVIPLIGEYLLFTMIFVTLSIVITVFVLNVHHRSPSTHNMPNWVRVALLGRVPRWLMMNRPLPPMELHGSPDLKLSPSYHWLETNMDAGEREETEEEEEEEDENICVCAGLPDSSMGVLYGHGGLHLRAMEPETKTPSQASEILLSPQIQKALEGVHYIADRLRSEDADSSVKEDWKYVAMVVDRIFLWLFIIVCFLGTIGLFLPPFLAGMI", "sequence (P12390 25-500 limits assumed)": "as the sequence (P12390 25-500 limits assumed) above", "assay_type": "cell-based"}, "rat α2β4 nAChR": {"biological_target": "rat α2β4 nAChR (Rattus norvegicus, UniProt P12389+P12392)", "sequence (P12389 28-511 limits assumed)": "as the sequence (P12389 28-511 limits assumed) above", "sequence (P12392 21-495 limits assumed)": "as the sequence (P12392 21-495 limits assumed) above", "assay_type": "cell-based"}, "human α9α10 nAChR": {"biological_target": "human α9α10 nAChR (Homo sapiens, UniProt Q9GZZ6+Q9UGM1)", "assay_type": "cell-based"}}, "note": "Where a SMILES comes first, the peptide text is derived from it. Bridges are numbered along the chain shown (N, C = ends)."}
{"smiles": "CC(C)C[C@@H]1NC(=O)[C@H](CC(=O)O)NC(=O)[C@H](CO)NC(=O)[C@H](Cc2c[nH]cn2)NC(=O)[C@H](CCC(N)=O)NC(=O)[C@H](C(C)C)NC(=O)[C@H](CCC(N)=O)NC(=O)[C@@H]2CSSC[C@H](NC(=O)[C@@H](NC(=O)[C@H](CC(=O)O)NC(=O)[C@H](C)NC(=O)CNC(=O)[C@H](CO)NC(=O)[C@H](C)N)[C@@H](C)O)C(=O)N[C@@H](CSSC[C@@H](C(=O)O)NC1=O)C(=O)N[C@@H](CO)C(=O)N[C@@H](CC(N)=O)C(=O)N1CCC[C@H]1C(=O)N[C@@H](C)C(=O)N2", "note": "[CIC] (H-ASGADTCCSNPACQVQHSDLC-OH; disulfide 7-13, 8-21)", "values": [{"measurement": "IC50", "setting": "rat α3β2 nAChR", "result": 3.51, "unit": "µM"}, {"measurement": "IC50", "setting": "rat α6/α3β2β3 nAChR", "result": 1.03, "unit": "µM"}, {"measurement": "IC50", "setting": "rat α7 nAChR", "result": "> 10", "unit": "µM"}, {"measurement": "IC50", "setting": "rat α4β2 nAChR", "result": "> 10", "unit": "µM"}, {"measurement": "IC50", "setting": "rat α4β4 nAChR", "result": "> 10", "unit": "µM"}, {"measurement": "IC50", "setting": "rat α3β4 nAChR", "result": "> 10", "unit": "µM"}, {"measurement": "IC50", "setting": "rat α2β2 nAChR", "result": "> 10", "unit": "µM"}, {"measurement": "IC50", "setting": "rat α2β4 nAChR", "result": "> 10", "unit": "µM"}, {"measurement": "IC50", "setting": "human α9α10 nAChR", "result": "> 10", "unit": "µM"}]}
